Results on two substances are retold here after PMC10016038, “Enhanced Endosomal Signaling and Desensitization of GLP-1R vs GIPR in Pancreatic Beta Cells” (Endocrinology, 2023).

The subject of one assay is SNAP-tagged human GIPR. In words: TR-FRET receptor clustering, SNAP-GIPR. Format: cell-based. The conditions noted are these: 100 nM, 37 °C, n = 4. Here is the method: The time-resolved fluorescence resonance energy transfer (TR-FRET) assay was performed as previously described ([24]). INS-1 832/3 SNAP-GLP-1R or SNAP-GIPR cells were labeled in suspension with 40 nM SNAP-Lumi4-Tb and 1 mM SNAP-Surface 649 (New England Biolabs, Hitchin, UK) for 1 hour at room temperature in complete medium. […] TR-FRET was quantified as the ratio of fluorescent signal at 665 nm to that at 616 nm, after subtraction of background signal at each wavelength.
Figure 3. GLP-1R vs GIPR clustering propensities in beta cells. […] Diffusion coefficients for individual ROIs are indicated on each image, with corresponding intensity traces, as well as 2D and fitted 3D autocorrelation maps for each ROI, are also depicted. (B) Average RICS diffusion coefficients for each receptor and treatment for each cell analyzed from n = 4 experiments. (C) GLP-1R clustering kinetics measured by TR-FRET in INS-1 832/3 SNAP-GLP-1R cells treated with 100 nM agonist as indicated, with vehicle-corrected AUCs included; n = 4. (D) GIPR clustering kinetics measured by TR-FRET in INS-1 832/3 SNAP-GIPR cells treated with 100 nM agonist as indicated, with vehicle-corrected AUCs included; n = 4. Data are mean ± SEM, compared by one-way ANOVA with Sidak's test; ****P < .0001; ns: non-significant. […] Best readings: GLP-1R Veh i 2.03, ii 1.56, iii 1.44 μm^2/s; GIPR Veh i 0.80, ii 0.34, iii 0.44 μm^2/s. […]

Another assay has as its system GIPR-SmBiT. Briefly: Mini-G protein/β-arrestin 2 recruitment NanoBiT, GIPR. Format: cell-based. The conditions noted are these: 100 nM GIP, n = 5. From the text:
Here the SmBiT was cloned in frame at the C-terminus of the GLP-1R and the GIPR by substitution of the Tango sequence on FLAG-tagged GLP-1R-Tango or GIPR-Tango (a gift from Prof. Bryan Roth, University of North Carolina, USA; Addgene plasmids #66291 and #66294), respectively. Mini-Gs, mini-Gq, and mini-Gi plasmids, tagged at the N-terminus with LgBiT, were a gift from Prof. Nevin Lambert, Medical College of Georgia, USA. For β-arrestin 2 recruitment assays, β-arrestin 2 fused at the N-terminus to LgBiT (LgBiT-β-arrestin 2; Promega, plasmid no. CS1603B118) was chosen as it has previously been used successfully with other class B GPCRs. […]
All NanoBiT and NanoBRET readings were obtained in a Flexstation 3 plate reader. […] Readings were normalized to well baseline and then to average vehicle-induced signal to establish the agonist-induced effect. AUCs from response curves were calculated for each agonist concentration and fitted to four-parameter curves using Prism 9 (GraphPad).
Figure 5. […] (A) Kinetics of Gαs, Gαq, Gαi, and β-arrestin 2 recruitment to the GLP-1R assessed by NanoBiT complementation assay in INS-1 832/3 GLP-1R KO cells transiently expressing GLP-1R-SmBiT and the corresponding mini-G protein subtype or β-arrestin 2. […]
(In general: Arrestin recruitment assays detect the binding of arrestin to an activated receptor.)

In assay [1] the test system is calcium response in INS-1 832/3 cells. In words: Calcium assay, INS-1 832/3 cells. Format: cell-based, rat. The settings on record: for Calcium response, net difference between both receptors: INS-1 832/3. Here is the method:
Imaging of INS-1 832/3 cells or whole-islet Ca^2+ dynamics was performed as follows: cells or Matrigel-encased islets from individual animals were loaded with the Ca^2+ responsive dye Cal-520 AM (AAT Bioquest), pre-incubated for 1 hour in KRBH G6, and imaged in MatTek glass bottom dishes every 6 second at 488 nm using a Nikon Eclipse Ti microscope with an ORCA-Flash 4.0 camera (Hamamatsu) and Metamorph software (Molecular Devices) while maintained at 37 °C on a heated stage. Raw fluorescence intensity traces from cell-occupied areas or islet ROIs were extracted using Fiji. Responses were plotted relative to the average fluorescence intensity during the 6 mM glucose baseline period, before agonist addition.
Figure 7. Functional analysis of GLP-1R vs GIPR signaling in beta cells. […] Data are mean ± SEM, compared by paired t tests; *P < .05; ns, nonsignificant.

On to GIP(1-42), for which the GIPR clustering result in the assay with SNAP-tagged human GIPR is “could not be detected”. Also, in the assay with GIPR-SmBiT (30 minutes), the “GIPR responses for all readouts (Gαs, Gαq, Gαi, β-arrestin 2) compared with GLP-1R” value is “markedly reduced for all readouts”. The “Gαs recruitment to the GIPR” value in the assay on GIPR-SmBiT is recorded as “almost as low as those obtained for Gαi”. Moreover, the “Calcium response, net difference between both receptors” value in assay [1] (Cal-520 AM, 100 nM, n = 4) is “zero net difference”. In assay [1] (Cal-520 AM, 100 nM, first minute, n = 4), the “Calcium response, GIPR compared with GLP-1R, 0-1 minute” value is “initial trend for a decreased GIPR compared with GLP-1R response”. For the same substance, the “Calcium response, GIPR compared with GLP-1R, 1-5 minutes” value in assay [1] (Cal-520 AM, 100 nM, following 4 minutes, n = 4) is “this tendency was reversed”. For the same substance, the “Calcium response tendency, GIP vs GLP-1, INS-1 832/3” value in assay [1] (summary in discussion) is listed as “tendency toward increased”.
Regarding GLP-1(7-36)NH2, in the assay on SNAP-tagged human GIPR, the GIPR clustering result is reported as “not detectable”. Further, the “Calcium response, net difference between both receptors” value in assay [1] (Cal-520 AM, 100 nM, n = 4) is given as “zero net difference”.
